From patent publication US8486962B2, “Antifungal agents” (F2G Ltd., priority 2005, dated 2013)
Values after ≈ are worked out from the molar mass of the structure shown. Like-named read-outs stand apart in the source and are kept apart here.

Legend:
[1] = tested on: Aspergillus flavus; test: MIC, YAG medium, Aspergillus flavus; type: cell-based; conditions: Aspergillus flavus, YAG medium
Procedure, shortened: (§1)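 Broth microdilution over doubling dilutions (50-0.05 mg/L). C. albicans in RPMI with 2% glucose and 0.135M MOPS (pH7.0), 1-2×10^3 cfu/ml, 24-48 hrs at 35° C; MIC = >80% growth inhibition by OD485. Aspergillus spp. in YAG (1% glucose, 1% ammonium chloride, 0.5% yeast extract), 1-2×10^4 cfu/ml, 24 hrs, >70% inhibition.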

[2] = tested on: Aspergillus fumigatus AF293; test: MIC, YAG medium, Aspergillus fumigatus AF293; type: cell-based; conditions: Aspergillus fumigatus, AF293; YAG medium; read-out: MIC A Fum. 293
Procedure, shortened: as §1

[3] = tested on: Aspergillus niger; test: MIC, YAG medium, Aspergillus niger; type: cell-based; conditions: Aspergillus niger, YAG medium
Procedure, shortened: as §1

[4] = tested on: Aspergillus terreus; test: MIC, YAG medium, Aspergillus terreus; type: cell-based; conditions: Aspergillus terreus, YAG medium
Procedure, shortened: as §1

[5] = tested on: Aspergillus fumigatus AF210; test: MIC, YAG medium, Aspergillus fumigatus AF210; type: cell-based; conditions: Aspergillus fumigatus, AF210; YAG medium; read-out: MIC A Fum. 210
Procedure, shortened: as §1

[6] = tested on: A Terreus 49; test: MIC, YAG medium, A Terreus 49; type: cell-based, Aspergillus terreus; conditions: Aspergillus terreus; YAG medium; read-out: MIC A Terreus 49
Procedure, shortened: as §1

| Structure (SMILES) | MIC ([1]; read-out: MIC A Flavus 01) [µg/mL] | MIC [2] [µg/mL] | MIC ([3]; read-out: MIC A Niger 1) [µg/mL] | MIC ([4]; read-out: MIC A Terreus 4) [µg/mL] | MIC [5] [µg/mL] | MIC [6] [µg/mL] | MIC ([1]; read-out: MIC A Flavus) [µg/mL] | MIC ([3]; read-out: MIC A Niger) [µg/mL] | MIC ([4]; read-out: MIC A Terreus) [µg/mL] |
| --- | --- | --- | --- | --- | --- | --- | --- | --- | --- |
| COc1ccc(NC(=O)C(=O)c2c(-c3ccccc3)cc3ccccn23)cn1 [Example 146, N-(6-Methoxy-pyridin-3-yl)-2-oxo-2-(2-phenyl-indolizin-3-yl)-acetamide] | 0.062 (≈ 0.167 µM) | 0.5 (≈ 1.35 µM) | 0.25 (≈ 0.673 µM) | 0.062 (≈ 0.167 µM) | 0.5 (≈ 1.35 µM) | 0.03 (≈ 0.0808 µM) | – | – | – |
| O=C(Nc1ccc(F)cc1F)C(=O)c1c(-c2ccc(F)cc2F)cc2ccccn12 [Example 265, N-(2,4-Difluoro-phenyl)-2-[2-(2,4-difluoro-phenyl)-indolizin-3-yl]-2-oxo-acetamide] | 0.1 (≈ 0.243 µM) | > 50 | 0.008 (≈ 0.0194 µM) | 0.015 (≈ 0.0364 µM) | > 50 | 0.06 (≈ 0.146 µM) | – | – | – |
| O=C(Nc1ccc(F)cc1F)C(=O)c1c(-c2cccc(F)c2)cc2ccccn12 [Example 244, N-(2,4-Difluoro-phenyl)-2-[2-(3-fluoro-phenyl)-indolizin-3-yl]-2-oxo-acetamide] | 0.2 (≈ 0.507 µM) | > 50 | 0.05 (≈ 0.127 µM) | 0.2 (≈ 0.507 µM) | > 50 | 0.1 (≈ 0.254 µM) | – | – | – |
| COc1ccc(NC(=O)C(=O)c2c(-c3ccc(F)cc3)cc3ccccn23)c(OC)c1 [Example 149, N-(2,4-Dimethoxy-phenyl)-2-[2-(4-fluoro-phenyl)-indolizin-3-yl]-2-oxo-acetamide] | 0.031 (≈ 0.0741 µM) | 0.5 (≈ 1.19 µM) | 0.031 (≈ 0.0741 µM) | 0.06 (≈ 0.143 µM) | 1.6 (≈ 3.82 µM) | 0.031 (≈ 0.0741 µM) | – | – | – |
| COc1ccc(NC(=O)C(=O)c2c(-c3cccc(Cl)c3)cc3ccccn23)cc1 [Example 235, 2-[2-(3-Chloro-phenyl)-indolizin-3-yl]-N-(4-methoxy-phenyl)-2-oxo-acetamide] | 0.031 (≈ 0.0766 µM) | 0.5 (≈ 1.24 µM) | 0.12 (≈ 0.296 µM) | 0.015 (≈ 0.0371 µM) | 0.5 (≈ 1.24 µM) | 0.008 (≈ 0.0198 µM) | – | – | – |
| C[S+]1CCN(c2ccc(NC(=O)C(=O)c3c(-c4ccccc4)cc4ccccn34)cc2)CC1.[I-] [Example 299, 1-Methyl-4-{4-[2-oxo-2-(2-phenyl-indolizin-3-yl)-acetylamino]-phenyl}-thiomorpholin-1-ium iodide] | 3.1 | 6.25 | 12.5 | 3.1 | 6.25 | 1.6 | – | – | – |

These reach a lower MIC [2]. Values come first.

| MIC ([1]; read-out: MIC A Flavus 01) [µg/mL] | MIC [2] [µg/mL] | MIC ([3]; read-out: MIC A Niger 1) [µg/mL] | MIC ([4]; read-out: MIC A Terreus 4) [µg/mL] | MIC [5] [µg/mL] | MIC [6] [µg/mL] | MIC ([1]; read-out: MIC A Flavus) [µg/mL] | MIC ([3]; read-out: MIC A Niger) [µg/mL] | MIC ([4]; read-out: MIC A Terreus) [µg/mL] | Structure (SMILES) |
| --- | --- | --- | --- | --- | --- | --- | --- | --- | --- |
| 0.004 (≈ 0.0104 µM) | 0.25 (≈ 0.65 µM) | 0.06 (≈ 0.156 µM) | 0.008 (≈ 0.0208 µM) | 0.25 (≈ 0.65 µM) | 0.004 (≈ 0.0104 µM) | – | – | – | COc1ccc(NC(=O)C(=O)c2c(-c3cccc(C)c3)cc3ccccn23)cc1 [Example 233, N-(4-Methoxy-phenyl)-2-oxo-2-(2-m-tolyl-indolizin-3-yl)-acetamide] |
| 0.062 (≈ 0.146 µM) | 0.12 (≈ 0.282 µM) | 0.062 (≈ 0.146 µM) | 0.031 (≈ 0.0729 µM) | 0.12 (≈ 0.282 µM) | 0.015 (≈ 0.0353 µM) | – | – | – | O=C(Nc1ccc(N2CCOCC2)cc1)C(=O)c1c(-c2ccccc2)cc2ccccn12 [Example 251, N-(4-Morpholin-4-yl-phenyl)-2-oxo-2-(2-phenyl-indolizin-3-yl)-acetamide] |
| – | 0.12 (≈ 0.294 µM) | – | – | 0.062 (≈ 0.152 µM) | 0.002 (≈ 0.0049 µM) | 0.008 (≈ 0.0196 µM) | 0.015 (≈ 0.0367 µM) | 0.004 (≈ 0.00979 µM) | O=C(Nc1cccc(C(F)(F)F)c1)C(=O)c1c(-c2ccccc2)cc2ccccn12 [Example 306, 2-Oxo-2-(2-phenyl-indolizin-3-yl)-N-(3-trifluoromethyl-phenyl)-acetamide] |
| 0.05 (≈ 0.118 µM) | 0.1 (≈ 0.236 µM) | 0.008 (≈ 0.0189 µM) | 0.015 (≈ 0.0354 µM) | 0.4 (≈ 0.945 µM) | 0.004 (≈ 0.00945 µM) | – | – | – | O=C(Nc1ccc(-c2nccs2)cc1)C(=O)c1c(-c2ccccc2)cc2ccccn12 [Example 293, 2-Oxo-2-(2-phenyl-indolizin-3-yl)-N-(4-thiazol-2-yl-phenyl)-acetamide] |
| 0.004 (≈ 0.0101 µM) | 0.062 (≈ 0.156 µM) | 0.12 (≈ 0.302 µM) | 0.004 (≈ 0.0101 µM) | 0.031 (≈ 0.078 µM) | 0.002 (≈ 0.00503 µM) | – | – | – | Cc1cc(NC(=O)C(=O)c2c(-c3ccccc3)cc3ccccn23)ccc1N(C)C [Example 273, N-(4-Dimethylamino-3-methyl-phenyl)-2-oxo-2-(2-phenyl-indolizin-3-yl)-acetamide] |
| 0.015 (≈ 0.0341 µM) | 0.06 (≈ 0.136 µM) | 0.008 (≈ 0.0182 µM) | 0.062 (≈ 0.141 µM) | 0.062 (≈ 0.141 µM) | 0.008 (≈ 0.0182 µM) | – | – | – | CCCCOC(=O)c1ccc(NC(=O)C(=O)c2c(-c3ccccc3)cc3ccccn23)cc1 [Example 144, 4-[2-Oxo-2-(2-phenyl-indolizin-3-yl)-acetylamino]-benzoic acid butyl ester] |
